The values below come from patent US6562849B1, “Amine derivative compounds” (Sankyo Company, Limited, priority 1999, dated 2003).

Structures can show the parent of a compound that is named as a salt.

The assay relates to KK mice (age 4-5 months) with diabetes. The assay can be described thus: Blood sugar lowering effect in KK mice with diabetes. In kind it is in vivo. Conditions: Mus musculus, po, 72 h, powder diet containing 0.01% of the test compound for 3 days, plasma glucose vs control group, groups of 4 mice, read-out: Blood sugar decrease rate (%). The text has this: [Test Example] Blood Sugar Lowering Effect
Blood samples were collected from the caudal vein of KK mice (age 4-5 months) with diabetes followed by measurement of their blood sugar levels. Next, after assigning the mice to groups (of 4 mice each) so that the mean blood sugar levels of each group were the same, mouse laboratory powder diet (F-1, Funabashi Farms), prepared so as to contain 0.01% of the test compound, was given to the mice for 3 days. The groups of mice that were given test compound were designated as the drug dose groups. It should be noted that a group that was given laboratory diet not containing the test compound was designated as the control group. Blood samples were collected from the caudal vein of the mice 3 days later and the glucose concentration of the plasma obtained by centrifugal separation was measured with a glucose analyzer (Glucoloader, A & T Corp.). The mean decrease of blood sugar rate (%) was determined according to the following equation.
Blood sugar decrease rate (%)=(mean blood sugar value of control group−mean blood sugar value […] of drug dose group)×100/(blood sugar value of control group)
Take `Cc1cc(Oc2ccc3nc(COc4ccc(CC5SC(=O)NC5=O)cc4)n(C)c3c2)cc(C)c1NC(=S)Nc1ccc(Cl)cc1` (stereo not shown) [Example 2, 1-(4-Chlorophenyl)-3-(4-[2-[4-(2,4-dioxothiazolidin-5-ylmethyl)phenoxymethyl]-1-methyl-1H-benzimidazol-6-yloxy]-2,6-dimethylphenyl)thiourea]: the inhibition in vivo at 0.01 % in diet worked out at 48.9%.
Regarding `Cc1cc(Oc2ccc3nc(COc4ccc(CC5SC(=O)NC5=O)cc4)n(C)c3c2)cc(C)c1NC(=O)Nc1ccc([N+](=O)[O-])cc1` (stereo not shown) [Example 3, 1-(4-[2-[4-(2,4-Dioxothiazolidin-5-ylmethyl)phenoxymethyl]-1-methyl-1H-benzimidazol-6-yloxy]-2,6-dimethylphenyl)-3-(4-nitrophenyl)urea], the inhibition in vivo at 0.01 % in diet worked out at 49.9%.
The figure for `Cn1c(COc2ccc(CC3SC(=O)NC3=O)cc2)nc2ccc(Oc3ccc(NC(=O)Nc4ccccc4)cc3)cc21` (stereo not shown) [Example 4, 1-(4-[2-[4-(2,4-Dioxothiazolidin-5-ylmethyl)phenoxymethyl]-1-methyl-1H-benzimidazol-6-yloxy]phenyl)-3-phenylurea] is 48.6%; for `Cn1c(COc2ccc(CC3SC(=O)NC3=O)cc2)nc2ccc(Oc3ccc(NC(=O)Nc4ccc(F)cc4F)cc3)cc21` (stereo not shown) [Example 5, 1-(2,4-Difluorophenyl)-3-(4-[2-[4-(2,4-dioxothiazolidin-5-ylmethyl)phenoxymethyl]-1-methyl-1H-benzimidazol-6-yloxy]phenyl)urea] it is 36.2%.
The figure for `Cn1c(COc2ccc(CC3SC(=O)NC3=O)cc2)nc2ccc(Oc3ccc(NC(=S)NC4CCCCC4)cc3)cc21` (stereo not shown) [Example 9, 1-(4-[2-[4-(2,4-Dioxothiazolidin-5-ylmethyl)phenoxymethyl]-1-methyl-1H-benzimidazol-6-yloxy]phenyl)-3-(cyclohexyl)thiourea] is 47.1%; for `Cn1c(COc2ccc(CC3SC(=O)NC3=O)cc2)nc2ccc(Oc3ccc(NC(=S)NCc4ccccc4)cc3)cc21` (stereo not shown) [Example 11, 1-Benzyl-3-(4-[2-[4-(2,4-dioxothiazolidin-5-ylmethyl)phenoxymethyl]-1-methyl-1H-benzimidazol-6-yloxy]phenyl)thiourea] it is 32.9%.
Consider `CCNC(=O)Nc1ccc(Oc2ccc3nc(COc4ccc(CC5SC(=O)NC5=O)cc4)n(C)c3c2)cc1` (stereo not shown) [Example 12, 1-(4-[2-[4-(2,4-Dioxothiazolidin-5-ylmethyl)phenoxymethyl]-1-methyl-1H-benzimidazol-6-yloxy]phenyl)-3-ethylurea], for which the inhibition in vivo at 0.01 % in diet is 56.1%.
The figure for `Cn1c(COc2ccc(CC3SC(=O)NC3=O)cc2)nc2ccc(Oc3ccc(NC(=O)NC45CC6CC(CC(C6)C4)C5)cc3)cc21` (stereo not shown) [Example 14, 1-(Adamant-1-yl)-3-(4-[2-[4-(2,4-dioxothiazolidin-5-ylmethyl)phenoxymethyl]-1-methyl-1H-benzimidazol-6-yloxy]phenyl)urea] is 63.2%.
As for `CCCCCCN(C(=O)Nc1ccc(F)cc1)c1ccc(Oc2ccc3nc(COc4ccc(CC5SC(=O)NC5=O)cc4)n(C)c3c2)cc1` (stereo not shown) [Example 16, 1-(4-[2-[4-(2,4-Dioxothiazolidin-5-ylmethyl)phenoxymethyl]-1-methyl-1H-benzimidazol-6-yloxy]phenyl)-1-n-hexyl-3-(4-fluorophenyl)urea], the figure is 42.9%.
The figure for `Cn1c(COc2ccc(CC3SC(=O)NC3=O)cc2)nc2ccc(Oc3ccc(NS(C)(=O)=O)cc3)cc21` (stereo not shown) [Example 18, N-(4-[2-[4-(2,4-Dioxothiazolidin-5-ylmethyl)phenoxymethyl]-1-methyl-1H-benzimidazol-6-yloxy]phenyl)methanesulfonamide] is 61%; for `Cn1c(COc2ccc(CC3SC(=O)NC3=O)cc2)nc2ccc(Oc3ccc(CCNC(=O)Nc4ccc(F)cc4F)cc3)cc21` (stereo not shown) [Example 31, 1-(2,4-Difluorophenyl)-3-[2-(4-[2-[4-(2,4-dioxothiazolidin-5-ylmethyl)phenoxymethyl]-1-methyl-1H-benzimidazol-6-yloxy]phenyl)ethyl]urea] it is 50.5%.
With `Cn1c(COc2ccc(CC3SC(=O)NC3=O)cc2)nc2ccc(Oc3ccc(CCNC(=O)NC45CC6CC(CC(C6)C4)C5)cc3)cc21` (stereo not shown) [Example 33, 1-(Adamant-1-yl)-3-[2-(4-[2-[4-(2,4-dioxothiazolidin-5-ylmethyl)phenoxymethyl]-1-methyl-1H-benzimidazol-6-yloxy]phenyl)ethyl]urea dihydrochloride], the inhibition in vivo at 0.01 % in diet was found to be 30.4%.
As for `Cn1c(COc2ccc(CC3SC(=O)NC3=O)cc2)nc2ccc(Oc3ccc(CCNC(=O)Nc4ccc(C(F)(F)F)cc4)cc3)cc21` (stereo not shown) [Example 34, 1-[2-(4-[2-[4-(2,4-Dioxothiazolidin-5-ylmethyl)phenoxymethyl]-1-methyl-1H-benzimidazol-6-yloxy]phenyl)ethyl]-3-[4-(trifluoromethyl)phenyl]urea hydrochloride], the figure is 32.8%; as for `Cn1c(COc2ccc(CC3SC(=O)NC3=O)cc2)nc2ccc(OCCc3ccc(NC(=O)Nc4ccc(C(F)(F)F)cc4)cc3)cc21` (stereo not shown) [Example 37, 1-[4-(2-[2-[4-(2,4-Dioxothiazolidin-5-ylmethyl)phenoxymethyl]-1-methyl-1H-benzimidazol-6-yloxy]ethyl)phenyl]-3-[4-(trifluoromethyl)phenyl]urea], 35.2%.
As for `CC(C)c1cccc(C(C)C)c1NC(=O)Nc1cccc2ccc(Oc3ccc4nc(COc5ccc(CC6SC(=O)NC6=O)cc5)n(C)c4c3)cc12` (stereo not shown) [Example 40, 1-(2,6-Diisopropylphenyl)-3-[7-[2-[4-(2,4-dioxothiazolidin-5-ylmethyl)phenoxymethyl]-1-methyl-1H-benzimidazol-6yloxy]naphthalen-1-yl)urea], the figure is 59.3%; as for `Cn1c(COc2ccc(CC3SC(=O)NC3=O)cc2)nc2ccc(Oc3ccc4cccc(NC(=S)NCc5ccccc5)c4c3)cc21` (stereo not shown) [Example 44, 1-Benzyl-3-(7-[2-[4-(2,4-dioxothiazolidin-5-ylmethyl)phenoxymethyl]-1-methyl-1H-benzimidazol-6-yloxy]naphthalen-1-yl)thiourea], 47.2%.
The figure for `Cn1c(COc2ccc(CC3SC(=O)NC3=O)cc2)nc2ccc(Oc3ccc4cccc(NC(=O)NCc5ccccc5)c4c3)cc21` (stereo not shown) [Example 45, 1-Benzyl-3-(7-[2-[4-(2,4-dioxothiazolidin-5-ylmethyl)phenoxymethyl]-1-methyl-1H-benzimidazol-6-yloxy]naphthalen-1-yl)urea] is 54.1%; for `CC(=O)Nc1ccc(Oc2ccc3nc(COc4ccc(CC5SC(=O)NC5=O)cc4)n(C)c3c2)cc1` (stereo not shown) [Example 52, N-[4-[2-[4-(2,4-Dioxothiazolidin-5-ylmethyl)phenoxymethyl]-1-methyl-1H-benzimidazol-6-yloxy]phenyl]acetamide] it is 58.5%; for `Cn1c(COc2ccc(CC3SC(=O)NC3=O)cc2)nc2ccc(Oc3ccc(NC(=O)c4ccccc4)cc3)cc21` (stereo not shown) [Example 53, N-[4-[2-[4-(2,4-Dioxothiazolidin-5-ylmethyl)phenoxymethyl]-1-methyl-1H-benzimidazol-6-yloxy]phenyl]benzamide] it is 59.6%.
Consider `Cn1c(COc2ccc(CC3SC(=O)NC3=O)cc2)nc2ccc(Oc3ccc(NC(=O)c4cccc(Cl)c4)cc3)cc21` (stereo not shown) [Example 54, 3-Chloro-N-[4-[2-[4-(2,4-dioxothiazolidin-5-ylmethyl)phenoxymethyl]-1-methyl-1H-benzimidazol-6-yloxy]phenyl]benzamide], for which the inhibition in vivo at 0.01 % in diet came to 43.4%.
Take `Cn1c(COc2ccc(CC3SC(=O)NC3=O)cc2)nc2ccc(Oc3ccc(NC(=O)c4ccncc4)cc3)cc21` (stereo not shown) [Example 55, N-[4-[2-[4-(2,4-Dioxothiazolidin-5-ylmethyl)phenoxymethyl]-1-methyl-1H-benzimidazol-6-yloxy]phenyl]isonicotinamide]: the inhibition in vivo at 0.01 % in diet was found to be 53.8%.
As for `Cn1c(COc2ccc(CC3SC(=O)NC3=O)cc2)nc2ccc(Oc3ccc(NC(=O)c4cccnc4)cc3)cc21` (stereo not shown) [Example 56, N-[4-[2-[4-(2,4-Dioxothiazolidin-5-ylmethyl)phenoxymethyl]-1-methyl-1H-benzimidazol-6-yloxy]phenyl]nicotinamide], the figure is 63.6%.
As to `Cn1c(COc2ccc(CC3SC(=O)NC3=O)cc2)nc2ccc(Oc3ccc(NC(=O)c4ccc(F)cc4F)cc3)cc21` (stereo not shown) [Example 57, 2,4-Difluoro-N-[4-[2-[4-(2,4-dioxothiazolidin-5-ylmethyl)phenoxymethyl]-1-methyl-1H-benzimidazol-6-yloxy]phenyl]benzamide], the inhibition in vivo at 0.01 % in diet was found to be 57.3%.
As for `Cn1c(COc2ccc(CC3SC(=O)NC3=O)cc2)nc2ccc(Oc3ccc(NC(=O)C4CCCC4)cc3)cc21` (stereo not shown) [Example 59, N-[4-[2-[4(2,4-dioxothiazolidin-5-ylmethyl)phenoxymethyl]-1-methyl-1H-benzimidazol-6-yloxy]phenyl]cyclopentanecarboxamide], the figure is 56.8%; as for `Cn1c(COc2ccc(CC3SC(=O)NC3=O)cc2)nc2ccc(Oc3ccc(NC(=O)c4ccc5ccccc5c4)cc3)cc21` (stereo not shown) [Example 60, N-[4-[2-[4-(2,4-Dioxothiazolidin-5-ylmethyl)phenoxymethyl]-1-methyl-1H-benzimidazol-6-yloxy]phenyl]naphthalene-2-carboxamide], 49.8%.
